Patent US8557816B2, “Aurora kinase modulators and method of use” (Amgen Inc., priority 2007, dated 2013)
Read-outs that look alike come from different tables or passages of the source.

Assays:
AuroraA-TPX2 = biological target: T1, AuroraA-TPX2 (Homo sapiens, UniProt O14965); test: AuroraA-TPX2 Homogeneous Time Resolved Fluorescent (HTRF) kinase assay; format: biochemical
T1 construct: 20 μL of AuroraA-TPX2 KD GST for a final volume of about 41 μL; GST
T1 sequence (O14965 133-383 limits assumed): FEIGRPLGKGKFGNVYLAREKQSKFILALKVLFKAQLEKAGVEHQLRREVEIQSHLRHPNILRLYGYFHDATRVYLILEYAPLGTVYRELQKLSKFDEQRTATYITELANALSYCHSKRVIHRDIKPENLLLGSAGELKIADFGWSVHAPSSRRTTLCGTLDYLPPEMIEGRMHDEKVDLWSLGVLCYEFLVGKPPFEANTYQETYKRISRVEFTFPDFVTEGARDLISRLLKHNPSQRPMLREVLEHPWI
T1 sequence (Q9ULW0 1-43 partner limits assumed): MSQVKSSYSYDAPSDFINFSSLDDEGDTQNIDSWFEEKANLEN
How it was run: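 HTRF read-out (Eu 615 nm to APC 655 nm) of phosphorylated biotin-PLK, detected with 0.02 nM europium anti-phosphoPLK antibody and 0.0005 mg/mL SA-APC after overnight equilibration.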

AuroraB = biological target: T2, AuroraB (Homo sapiens, UniProt Q96GD4); test: AuroraB Homogeneous Time Resolved Fluorescent (HTRF) kinase assay; format: biochemical
T2 construct: 20 μL of AuroraB FL H is for a final volume of 41 μL; His
How it was run: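 Full-length His-tagged kinase phosphorylates biotinylated Histone H3 (0.1 μM final) with ATP in pH 7.5 HEPES containing MgCl, MnCl, DTT and BSA for about 90 min. EDTA-containing detection mix with SA-APC and Eu-anti-phosphoHistone H3 then equilibrated about 60 min; HTRF read with 320 nm excitation, emissions 615/655 nm.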

[1] = average, read-out: AurA_IC50_IP (uM Avg)
[2] = average, read-out: AurB_IC50_IP (uM Avg)

T2 sequence (Q96GD4 whole entry): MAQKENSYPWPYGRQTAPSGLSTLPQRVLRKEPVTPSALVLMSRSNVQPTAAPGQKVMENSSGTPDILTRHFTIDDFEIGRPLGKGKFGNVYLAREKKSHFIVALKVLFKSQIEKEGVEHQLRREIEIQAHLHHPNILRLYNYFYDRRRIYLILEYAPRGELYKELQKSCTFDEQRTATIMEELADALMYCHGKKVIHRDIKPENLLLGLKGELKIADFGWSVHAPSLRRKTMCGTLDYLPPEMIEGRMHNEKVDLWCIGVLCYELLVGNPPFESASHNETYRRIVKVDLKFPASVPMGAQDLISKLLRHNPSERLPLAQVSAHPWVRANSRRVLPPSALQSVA

IC50 (AuroraA-TPX2; [1]) | IC50 (AuroraB; [2]) | IC50 (AuroraA-TPX2; given as class symbol, read-out: AurA_IC50_IP (class symbol)) | IC50 (AuroraB; given as class symbol, read-out: AurB_IC50_IP (class symbol)) | Structure (SMILES)
0.029 µM | 0.002 µM |  |  | c1ccc(-c2nnc(Nc3ccc(Sc4ccnc5cccnc45)cc3)c3ccccc23)cc1 [compound 285, N-(4-(1,5-naphthyridin-4-ylthio)phenyl)-4-phenyl-1-phthalazinamine]
0.087 µM | 0.022 µM |  |  | Cc1noc(-c2cc3nccc(Oc4ccc(Nc5nnc(-c6ccc(Cl)cc6)c6ccccc56)cc4)c3s2)n1 [compound 286, 4-(4-chlorophenyl)-N-(4-((2-(3-methyl-1,2,4-oxadiazol-5-yl)thieno[3,2-b]pyridin-7-yl)oxy)phenyl)-1-phthalazinamine]
0.061 µM | 0.013 µM |  |  | C#Cc1ccc(-c2nnc(Nc3ccc(Oc4ccnc5cc(OC)cnc45)cc3)c3ccccc23)cc1 [compound 287, 4-(4-ethynylphenyl)-N-(4-((7-(methyloxy)-1,5-naphthyridin-4-yl)oxy)phenyl)-1-phthalazinamine]
0.302 µM | 0.039 µM |  |  | Cc1noc(-c2cc3nccc(Oc4ccc(Nc5nnc(-c6ccccc6)c6ccccc56)cc4)c3s2)n1 [compound 288, N-(4-((2-(3-methyl-1,2,4-oxadiazol-5-yl)thieno[3,2-b]pyridin-7-yl)oxy)phenyl)-4-phenyl-1-phthalazinamine]
0.068 µM | 0.011 µM |  |  | Cc1csc(-c2nnc(Nc3ccc(Oc4ccnc5ccsc45)cc3)c3ccccc23)c1 [compound 289, 4-(4-methyl-2-thienyl)-N-(4-(thieno[3,2-b]pyridin-7-yloxy)phenyl)-1-phthalazinamine]
0.35 µM | 0.009 µM |  |  | Clc1ccc(-c2nnc(Nc3ccc(Oc4ncnc5[nH]ccc45)cc3)c3ccccc23)cc1 [compound 290, 4-(4-chlorophenyl)-N-(4-(7H-pyrrolo[2,3-d]pyrimidin-4-yloxy)phenyl)-1-phthalazinamine]
0.031 µM | 0.01 µM |  |  | COc1cnc2c(Oc3ccc(Nc4nnc(-c5ccc6c(c5)OC(F)(F)O6)c5ccccc45)cc3)ccnc2c1 [compound 291, 4-(2,2-difluoro-1,3-benzodioxol-5-yl)-N-(4-((7-(methyloxy)-1,5-naphthyridin-4-yl)oxy)phenyl)-1-phthalazinamine]
0.144 µM | 0.011 µM |  |  | COc1ccc2nccc(Sc3ccc(Nc4nnc(-c5ccccc5)c5ccccc45)cc3)c2c1 [compound 292, N-(4-((6-(methyloxy)-4-quinolinyl)thio)phenyl)-4-phenyl-1-phthalazinamine]
0.266 µM | 0.006 µM |  |  | FC1(F)Oc2ccc(-c3nnc(Nc4ccc(Oc5ccnc6ccsc56)cc4)c4ccccc34)cc2O1 [compound 293, 4-(2,2-difluoro-1,3-benzodioxol-5-yl)-N-(4-(thieno[3,2-b]pyridin-7-yloxy)phenyl)-1-phthalazinamine]
 |  | < 0.1 µM | < 0.1 µM | c1ccc(-c2nnc(Nc3ccc(Sc4ccnc5ccccc45)cc3)c3ccccc23)cc1 [compound 294, 4-phenyl-N-(4-(4-quinolinylthio)phenyl)-1-phthalazinamine]
0.036 µM | 0.031 µM |  |  | COc1ccc2nccc(Sc3ccc(Nc4nnc(-c5ccc(Cl)cc5)c5ccccc45)cc3)c2c1 [compound 297, 4-(4-chlorophenyl)-N-(4-(6-methoxyquinolin-4-ylthio)phenyl)phthalazin-1-amine]

Continued, compound first:

Structure (SMILES) | IC50 (AuroraA-TPX2; [1]) | IC50 (AuroraB; [2]) | IC50 (AuroraA-TPX2; given as class symbol, read-out: AurA_IC50_IP (class symbol)) | IC50 (AuroraB; given as class symbol, read-out: AurB_IC50_IP (class symbol))
c1ccc(-c2nnc(Nc3ccc(Oc4ccnc5ccc(N6CCOCC6)cc45)cc3)c3ccccc23)cc1 [compound 264, N-(4-((6-(4-morpholinyl)-4-quinolinyl)oxy)phenyl)-4-phenyl-1-phthalazinamine] | 0.139 µM | 0.016 µM |  | 
N#Cc1cnc2c(Oc3ccc(Nc4nnc(-c5ccc(Cl)cc5)c5ccccc45)cc3)ccnc2c1 [compound 265, 8-((4-((4-(4-chlorophenyl)-1-phthalazinyl)amino)phenyl)oxy)-1,5-naphthyridine-3-carbonitrile] | 0.113 µM | 0.009 µM |  | 
Clc1ccc(-c2nnc(Nc3ccc(Oc4ncnc5[nH]cnc45)cc3)c3ccccc23)cc1 [compound 266, 4-(4-chlorophenyl)-N-(4-(9H-purin-6-yloxy)phenyl)-1-phthalazinamine] | 0.679 µM | 0.045 µM |  | 
COc1cnc2c(Oc3ccc(Nc4nnc(-c5ccc(C)nc5)c5ccccc45)cc3)ccnc2c1 [compound 268, N-(4-((7-(methyloxy)-1,5-naphthyridin-4-yl)oxy)phenyl)-4-(6-methyl-3-pyridinyl)-1-phthalazinamine] | 0.064 µM | 0.003 µM |  | 
COc1ccc2nccc(Oc3ccc(Nc4nnc(-c5cc(C)cs5)c5ccccc45)cc3)c2c1 [compound 269, N-(4-((6-(methyloxy)-4-quinolinyl)oxy)phenyl)-4-(4-methyl-2-thienyl)-1-phthalazinamine] | 0.049 µM | 0.006 µM |  | 
CCN(CC)C(=O)c1cc2nccc(Oc3ccc(Nc4nnc(-c5ccc(Cl)cc5)c5ccccc45)cc3)c2s1 [compound 270, 7-((4-((4-(4-chlorophenyl)-1-phthalazinyl)amino)phenyl)oxy)-N,N-diethylthieno[3,2-b]pyridine-2-carboxamide] | 0.084 µM | 0.01 µM |  | 
COc1cnc2c(Sc3ccc(Nc4nnc(-c5cc(C)cs5)c5ccccc45)cc3)ccnc2c1 [compound 271, N-(4-(7-methoxy-1,5-naphthyridin-4-ylthio)phenyl)-4-(4-methylthiophen-2-yl)phthalazin-1-amine] | 0.066 µM | 0.024 µM |  | 
c1ccc2c(-c3ccc4c(c3)CCO4)nnc(Nc3ccc(Oc4ccnc5ccsc45)cc3)c2c1 [compound 272, 4-(2,3-dihydrobenzofuran-5-yl)-N-(4-(thieno[3,2-b]pyridin-7-yloxy)phenyl)phthalazin-1-amine] | 0.033 µM | 0.001 µM |  | 
c1ccc(-c2nnc(Nc3ccc(Oc4ncnc5[nH]ccc45)cc3)c3ccccc23)cc1 [compound 273, N-(4-(7H-pyrrolo[2,3-d]pyrimidin-4-yloxy)phenyl)-4-phenylphthalazin-1-amine] | 1.66 µM | 0.039 µM |  | 
CCc1cc(-c2ccccc2)nnc1Nc1ccc(Sc2ccnc3cc(OC)cnc23)cc1 [compound 274, 4-ethyl-N-(4-(7-methoxy-1,5-naphthyridin-4-ylthio)phenyl)-6-phenylpyridazin-3-amine] | 0.066 µM | 0.004 µM |  | 
CCc1cc(-c2ccc(Cl)cc2)nnc1Nc1ccc(Oc2ccnc3cc(OC)cnc23)nc1 [compound 275, 6-(4-chlorophenyl)-4-ethyl-N-(6-(7-methoxy-1,5-naphthyridin-4-yloxy)pyridin-3-yl)pyridazin-3-amine] | 0.156 µM | 0.011 µM |  | 
Fc1cc(F)c2c(Oc3ccc(Nc4nnc(-c5ccccc5)c5ccccc45)cc3)ccnc2c1 [compound 276, N-(4-(5,7-difluoroquinolin-4-yloxy)phenyl)-4-phenylphthalazin-1-amine] | 0.67 µM | 0.018 µM |  | 
Cc1nc(-c2nnc(Nc3ccc(Oc4ccnc5cc(C#N)ccc45)cc3)c3ccccc23)sc1C [compound 277, 4-((4-((4-(4,5-dimethyl-1,3-thiazol-2-yl)-1-phthalazinyl)amino)phenyl)oxy)-7-quinolinecarbonitrile] | 0.065 µM | 0.007 µM |  | 
COc1ccc2nccc(Oc3ccc(Nc4nnc(-c5ccc(Cl)cn5)c5ccccc45)cc3)c2c1 [compound 278, 4-(5-chloro-2-pyridinyl)-N-(4-((6-(methyloxy)-4-quinolinyl)oxy)phenyl)-1-phthalazinamine] | 0.082 µM | 0.004 µM |  | 
c1ccc2c(-c3ccc4c(c3)OCO4)nnc(Nc3ccc(Oc4ccnc5ccsc45)cc3)c2c1 [compound 279, 4-(1,3-benzodioxol-5-yl)-N-(4-(thieno[3,2-b]pyridin-7-yloxy)phenyl)-1-phthalazinamine] | 0.078 µM | 0.001 µM |  | 
COc1cnc2c(Oc3ccc(Nc4nnc(-c5cnc6[nH]ccc6c5)c5ccccc45)cc3)ccnc2c1 [compound 280, N-(4-((7-(methyloxy)-1,5-naphthyridin-4-yl)oxy)phenyl)-4-(1H-pyrrolo[2,3-b]pyridin-5-yl)-1-phthalazinamine] | 0.062 µM | 0.002 µM |  | 
COc1cnc2c(Oc3ccc(Nc4nnc(-c5ccccc5)c(C)c4C)cc3)ccnc2c1 [compound 281, 4,5-dimethyl-N-(4-((7-(methyloxy)-1,5-naphthyridin-4-yl)oxy)phenyl)-6-phenyl-3-pyridazinamine] | 0.696 µM | 0.019 µM |  | 
COc1cnc2c(Oc3ccc(Nc4nnc(-c5ccnc(Cl)c5)c5ccccc45)cc3)ccnc2c1 [compound 283, 4-(2-chloro-4-pyridinyl)-N-(4-((7-(methyloxy)-1,5-naphthyridin-4-yl)oxy)phenyl)-1-phthalazinamine] | 0.1 µM | 0.01 µM |  | 
COc1cnc2c(Oc3ccc(Nc4nnc(-c5ccc(Cl)cc5)c5ccccc45)cc3F)ccnc2c1 [compound 284, 4-(4-chlorophenyl)-N-(3-fluoro-4-((7-(methyloxy)-1,5-naphthyridin-4-yl)oxy)phenyl)-1-phthalazinamine] | 0.019 µM | 0.007 µM |  | 
